Test results: PubChem BioAssay AID248 (DTP/NCI, 2004)
Where “and” joins values, the source holds several entries; their conditions need not be identical. Equal entries are not always repeated. Toxic doses and inconclusive results are not listed.

Tested on: L1210 leukemia ip in BDF1 mice, survival T/C
Assay: NCI In Vivo Anticancer Drug Screen. Data for tumor model L1210 Leukemia (intraperitoneal) in B6D2F1 (BDF1) mice
Details: higher = longer survival
Outline: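 In this screen, tumor-bearing mice given compound are compared to those given vehicle, and their survival values are reported as a treated-to-control quotient.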

[1] = endpoint: mean survival time, dose: 100.0 mg/kg/injection, schedule: Q04DX003 (ip), vehicle: saline

N/C(=N\O)c1cn(C2OC(CO)C(O)C2O)c2ncnc(N)c12 (stereo not given)
T/C (endpoint: mean survival time, dose: 0.2 mg/kg/injection, schedule: Q01DX015 (ip), vehicle: carboxymethylcellulose (CMC)): 104 % of control | T/C (endpoint: mean survival time, dose: 0.25 mg/kg/injection, schedule: Q01DX009 (ip), vehicle: saline): 117 % of control | T/C (endpoint: mean survival time, dose: 0.25 mg/kg/injection, schedule: Q03HX024 (ip), vehicle: saline): 123 % of control | T/C (endpoint: mean survival time, dose: 0.3 mg/kg/injection, schedule: Q01DX015 (ip), vehicle: carboxymethylcellulose (CMC)): 117 % of control | T/C (endpoint: mean survival time, dose: 0.39 mg/kg/injection, schedule: Q01DX009 (ip), vehicle: saline): 150 % of control | T/C (endpoint: mean survival time, dose: 0.44 mg/kg/injection, schedule: Q01DX015 (ip), vehicle: carboxymethylcellulose (CMC)): 117 % of control | T/C (endpoint: mean survival time, dose: 0.5 mg/kg/injection, schedule: Q01DX005 (ip), vehicle: saline): 118 % of control | T/C (endpoint: mean survival time, dose: 0.67 mg/kg/injection, schedule: Q01DX015 (ip), vehicle: carboxymethylcellulose (CMC)): 120 % of control | T/C (endpoint: mean survival time, dose: 0.78 mg/kg/injection, schedule: Q01DX005 (ip), vehicle: saline): 111 % of control | T/C (endpoint: mean survival time, dose: 0.78 mg/kg/injection, schedule: Q01DX009 (ip), vehicle: saline): 150 % of control | T/C (endpoint: mean survival time, dose: 1.0 mg/kg/injection, schedule: Q03HX008 (ip), vehicle: saline): 160 % of control | T/C (endpoint: mean survival time, dose: 1.0 mg/kg/injection, schedule: Q03HX024 (ip), vehicle: saline): 192 % of control | T/C (endpoint: mean survival time, dose: 1.3 mg/kg/injection, schedule: Q01DX009 (ip), vehicle: saline): 159 % of control | T/C (endpoint: mean survival time, dose: 1.56 mg/kg/injection, schedule: Q01DX005 (ip), vehicle: saline): 110 % of control | T/C (endpoint: mean survival time, dose: 1.56 mg/kg/injection, schedule: Q01DX009 (ip), vehicle: saline): 204 % of control | T/C (endpoint: mean survival time, dose: 2.0 mg/kg/injection, schedule: Q01DX009 (ip), vehicle: saline): 158 % of control | T/C (endpoint: mean survival time, dose: 2.0 mg/kg/injection, schedule: Q03HX024 (ip), vehicle: saline): 102 % of control and 107 % of control | T/C (endpoint: mean survival time, dose: 3.0 mg/kg/injection, schedule: Q01DX009 (ip), vehicle: saline): 151 % of control | T/C (endpoint: mean survival time, dose: 3.12 mg/kg/injection, schedule: Q01DX001 (ip), vehicle: other): 121 % of control | T/C (endpoint: mean survival time, dose: 3.12 mg/kg/injection, schedule: Q01DX005 (ip), vehicle: saline): 156 % of control | T/C (endpoint: mean survival time, dose: 3.12 mg/kg/injection, schedule: Q01DX009 (ip), vehicle: saline): 109 % of control | T/C (endpoint: mean survival time, dose: 3.13 mg/kg/injection, schedule: Q01DX001 (ip), vehicle: water): 121 % of control | T/C (endpoint: mean survival time, dose: 4.0 mg/kg/injection, schedule: Q01DX001 (ip), vehicle: saline): 117 % of control | T/C (endpoint: mean survival time, dose: 4.0 mg/kg/injection, schedule: Q01DX005 (ip), vehicle: saline): 152 % of control | T/C (endpoint: mean survival time, dose: 4.0 mg/kg/injection, schedule: Q01DX009 (ip), vehicle: saline): 153 % of control and 180 % of control | T/C (endpoint: mean survival time, dose: 4.0 mg/kg/injection, schedule: Q01DX009 (oral), vehicle: saline): 96 % of control | T/C (endpoint: mean survival time, dose: 4.0 mg/kg/injection, schedule: Q08DX002 (ip), vehicle: saline): 122 % of control | T/C (endpoint: mean survival time, dose: 4.4 mg/kg/injection, schedule: Q01DX001 (ip), vehicle: carboxymethylcellulose (CMC)): 124 % of control | T/C (endpoint: mean survival time, dose: 5.0 mg/kg/injection, schedule: Q01DX001 (ip), vehicle: carboxymethylcellulose (CMC)): 124 % of control | T/C (endpoint: mean survival time, dose: 5.0 mg/kg/injection, schedule: Q01DX009 (ip), vehicle: saline): 158 % of control | T/C (endpoint: mean survival time, dose: 5.0 mg/kg/injection, schedule: Q01DX015 (ip), vehicle: carboxymethylcellulose (CMC)): 108 % of control | T/C (endpoint: mean survival time, dose: 6.25 mg/kg/injection, schedule: Q01DX001 (ip), vehicle: other): 122 % of control | T/C (endpoint: mean survival time, dose: 6.25 mg/kg/injection, schedule: Q01DX001 (ip), vehicle: water): 114 % of control | T/C (endpoint: mean survival time, dose: 6.25 mg/kg/injection, schedule: Q01DX009 (ip), vehicle: saline): 113 % of control | T/C (endpoint: mean survival time, dose: 8.0 mg/kg/injection, schedule: Q01DX001 (ip), vehicle: saline): 124 % of control | T/C (endpoint: mean survival time, dose: 8.0 mg/kg/injection, schedule: Q01DX005 (ip), vehicle: saline): 150 % of control | T/C (endpoint: mean survival time, dose: 8.0 mg/kg/injection, schedule: Q01DX009 (ip), vehicle: saline): 119 % of control and 121 % of control | T/C (endpoint: mean survival time, dose: 8.0 mg/kg/injection, schedule: Q01DX009 (oral), vehicle: saline): 95 % of control | T/C (endpoint: mean survival time, dose: 8.0 mg/kg/injection, schedule: Q04DX003 (ip), vehicle: saline): 151 % of control and 156 % of control | T/C (endpoint: mean survival time, dose: 16.0 mg/kg/injection, schedule: Q01DX001 (ip), vehicle: saline): 119 % of control | T/C (endpoint: mean survival time, dose: 16.0 mg/kg/injection, schedule: Q01DX001 (oral), vehicle: saline): 94 % of control | T/C (endpoint: mean survival time, dose: 16.0 mg/kg/injection, schedule: Q01DX009 (oral), vehicle: saline): 95 % of control | T/C (endpoint: mean survival time, dose: 16.0 mg/kg/injection, schedule: Q04DX003 (ip), vehicle: saline): 186 % of control | T/C (endpoint: mean survival time, dose: 22.5 mg/kg/injection, schedule: Q01DX001 (ip), vehicle: saline): 151 % of control | T/C (endpoint: mean survival time, dose: 25.0 mg/kg/injection, schedule: Q01DX001 (ip), vehicle: other): 157 % of control | T/C (endpoint: mean survival time, dose: 25.0 mg/kg/injection, schedule: Q01DX001 (ip), vehicle: water): 152 % of control | T/C (endpoint: mean survival time, dose: 32.0 mg/kg/injection, schedule: Q01DX001 (oral), vehicle: saline): 97 % of control | T/C (endpoint: mean survival time, dose: 32.0 mg/kg/injection, schedule: Q01DX009 (oral), vehicle: saline): 94 % of control | T/C (endpoint: mean survival time, dose: 32.0 mg/kg/injection, schedule: Q08DX002 (ip), vehicle: saline): 154 % of control | T/C (endpoint: mean survival time, dose: 50.0 mg/kg/injection, schedule: Q01DX001 (ip), vehicle: other): 150 % of control | T/C (endpoint: mean survival time, dose: 50.0 mg/kg/injection, schedule: Q01DX001 (ip), vehicle: water): 159 % of control | T/C (endpoint: mean survival time, dose: 64.0 mg/kg/injection, schedule: Q01DX001 (oral), vehicle: saline): 94 % of control | T/C (endpoint: mean survival time, dose: 128.0 mg/kg/injection, schedule: Q01DX001 (oral), vehicle: saline): 90 % of control | T/C (endpoint: median survival time, dose: 0.5 mg/kg/injection, schedule: Q01DX009 (ip), vehicle: saline): 118 % of control and 122 % of control | T/C (endpoint: median survival time, dose: 1.0 mg/kg/injection, schedule: Q01DX009 (ip), vehicle: saline): 122 % of control

Cc1ccc(S(=O)(=O)Oc2ccccc2NC(=O)c2ccccc2)cc1
T/C (endpoint: mean survival time, dose: 50.0 mg/kg/injection, schedule: Q01DX009 (ip), vehicle: saline with Tween-80): 96 % of control | T/C (endpoint: mean survival time, dose: 100.0 mg/kg/injection, schedule: Q01DX009 (ip), vehicle: saline with Tween-80): 96 % of control

OC1C2CCN(CC2)C1CN1CC=C(c2ccccc2)CC1 (stereo not given)
T/C (endpoint: mean survival time, dose: 25.0 mg/kg/injection, schedule: Q04DX003 (ip), vehicle: saline): 104 % of control | T/C (endpoint: mean survival time, dose: 50.0 mg/kg/injection, schedule: Q04DX003 (ip), vehicle: saline): 101 % of control | T/C [1]: 98 % of control

CCOc1ccc(NC(=O)OCCOc2ccccc2)cc1
T/C (endpoint: mean survival time, dose: 100.0 mg/kg/injection, schedule: Q01DX009 (ip), vehicle: Klucel (hydroxypropylcellulose) (HPC)): 104 % of control | T/C (endpoint: mean survival time, dose: 200.0 mg/kg/injection, schedule: Q01DX009 (ip), vehicle: Klucel (hydroxypropylcellulose) (HPC)): 100 % of control | T/C (endpoint: mean survival time, dose: 400.0 mg/kg/injection, schedule: Q01DX009 (ip), vehicle: Klucel (hydroxypropylcellulose) (HPC)): 94 % of control

Cc1cccc(C(=O)Cl)c1[N+](=O)[O-]
T/C (endpoint: mean survival time, dose: 50.0 mg/kg/injection, schedule: Q01DX001 (ip), vehicle: carboxymethylcellulose (CMC)): 95 % of control | T/C (endpoint: mean survival time, dose: 100.0 mg/kg/injection, schedule: Q01DX001 (ip), vehicle: carboxymethylcellulose (CMC)): 93 % of control | T/C (endpoint: mean survival time, dose: 200.0 mg/kg/injection, schedule: Q01DX001 (ip), vehicle: carboxymethylcellulose (CMC)): 90 % of control | T/C (endpoint: mean survival time, dose: 400.0 mg/kg/injection, schedule: Q01DX001 (ip), vehicle: carboxymethylcellulose (CMC)): 95 % of control

ClCCN(CC1C(c2ccccc2)C1c1ccccc1)C1CCCCC1 (stereo not given)
T/C (endpoint: mean survival time, dose: 1.5 mg/kg/injection, schedule: Q04DX002 (ip), vehicle: Klucel (hydroxypropylcellulose) (HPC)): 104 % of control | T/C (endpoint: mean survival time, dose: 3.1 mg/kg/injection, schedule: Q04DX002 (ip), vehicle: Klucel (hydroxypropylcellulose) (HPC)): 92 % of control | T/C (endpoint: mean survival time, dose: 6.25 mg/kg/injection, schedule: Q04DX002 (ip), vehicle: Klucel (hydroxypropylcellulose) (HPC)): 92 % of control

O=c1[nH]cc(C2OC(CO)C(O)C2O)c(=O)[nH]1 (stereo not given)
T/C (endpoint: mean survival time, dose: 100.0 mg/kg/injection, schedule: Q01DX005 (ip), vehicle: saline): 119 % of control | T/C (endpoint: mean survival time, dose: 200.0 mg/kg/injection, schedule: Q01DX005 (ip), vehicle: saline): 97 % of control

Clc1ccccc1C(c1ccc(-c2ccccc2)cc1)(c1ccc(-c2ccccc2)cc1)n1ccnc1
T/C (endpoint: mean survival time, dose: 100.0 mg/kg/injection, schedule: Q04DX003 (ip), vehicle: Klucel (hydroxypropylcellulose) (HPC)): 95 % of control | T/C (endpoint: mean survival time, dose: 200.0 mg/kg/injection, schedule: Q04DX003 (ip), vehicle: Klucel (hydroxypropylcellulose) (HPC)): 104 % of control | T/C (endpoint: mean survival time, dose: 400.0 mg/kg/injection, schedule: Q04DX003 (ip), vehicle: Klucel (hydroxypropylcellulose) (HPC)): 90 % of control

O=S(=O)(O)c1cc(O)c2cc(Nc3ccccc3)ccc2c1
T/C (endpoint: mean survival time, dose: 50.0 mg/kg/injection, schedule: Q01DX009 (ip), vehicle: saline): 96 % of control | T/C (endpoint: mean survival time, dose: 100.0 mg/kg/injection, schedule: Q01DX009 (ip), vehicle: saline): 93 % of control | T/C [1]: 89 % of control | T/C (endpoint: mean survival time, dose: 200.0 mg/kg/injection, schedule: Q01DX009 (ip), vehicle: saline): 102 % of control | T/C (endpoint: mean survival time, dose: 200.0 mg/kg/injection, schedule: Q04DX003 (ip), vehicle: saline): 100 % of control
